From patent US11999727B2 (Tango Therapeutics, Inc., priority 2020, dated 2024)
pIC50: −log10 of the molar value. Where two headings read alike, the source gives them in different places.

Tests used:
[1] = target: T1, PRMT5 (Homo sapiens, UniProt O14744); assay: PRMT5 biochemical IC50 assay with SAM as cofactor; conditions: PRMT5, SAM as cofactor; read-out: SAM IC50
T1 construct: purchased Viva (custom protein)

[2] = target: T1, PRMT5; assay: PRMT5 biochemical IC50 assay with no cofactor; conditions: PRMT5, no cofactor
Description: Table 1 indicates IC50 values (μM) against PRMT5 for exemplary compounds in the presence of SAM as cofactor, with no cofactor, and with MTA as cofactor, respectively (columns 4-6). […] Ki values can be calculated from the IC50 values as described in the Examples section. As detailed in the Examples section, for the assay performed in the presence of SAM, IC50=Ki×1.5 (Ki=IC50/1.5).

[3] = target: T1, PRMT5; assay: PRMT5 biochemical IC50 assay with MTA as cofactor; conditions: PRMT5, MTA as cofactor; read-out: MTA IC50
[4] = system: HAP1 MTAP-deleted cell line; assay: Viability assay, MTAP-deleted cell line; assay type: cell-based; conditions: read-out: HAP1 MTAP deleted viability
Description: Table 1 additionally indicates IC50 values in a viability assay for the MTAP-deleted cell line (column 10), indicating the effect of treatment with compound on cell survival.

[5] = Homo sapiens, HAP1, viability assay, MTAP-deleted cell line
[6] = read-out: No Cofactor/ rel IC50

T1 sequence (O14744 whole entry): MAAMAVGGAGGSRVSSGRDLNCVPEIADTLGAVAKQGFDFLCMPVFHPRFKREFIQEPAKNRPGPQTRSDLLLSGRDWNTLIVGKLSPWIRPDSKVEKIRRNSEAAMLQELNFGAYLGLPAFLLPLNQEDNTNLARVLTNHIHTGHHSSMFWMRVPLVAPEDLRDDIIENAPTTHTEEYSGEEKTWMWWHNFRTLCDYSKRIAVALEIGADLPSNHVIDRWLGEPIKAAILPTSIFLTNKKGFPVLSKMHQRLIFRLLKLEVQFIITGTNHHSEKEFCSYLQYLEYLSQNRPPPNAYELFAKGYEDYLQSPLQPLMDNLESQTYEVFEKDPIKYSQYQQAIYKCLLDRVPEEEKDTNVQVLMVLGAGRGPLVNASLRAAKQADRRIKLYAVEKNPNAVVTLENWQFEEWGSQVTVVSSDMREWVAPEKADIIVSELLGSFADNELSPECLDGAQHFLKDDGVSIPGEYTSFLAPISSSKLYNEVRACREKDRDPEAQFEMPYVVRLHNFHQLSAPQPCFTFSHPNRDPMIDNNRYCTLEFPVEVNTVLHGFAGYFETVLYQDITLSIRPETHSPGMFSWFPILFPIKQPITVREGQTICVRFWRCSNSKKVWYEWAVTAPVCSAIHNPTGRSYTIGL
T1 sequence (Q9BQA1 whole entry partner): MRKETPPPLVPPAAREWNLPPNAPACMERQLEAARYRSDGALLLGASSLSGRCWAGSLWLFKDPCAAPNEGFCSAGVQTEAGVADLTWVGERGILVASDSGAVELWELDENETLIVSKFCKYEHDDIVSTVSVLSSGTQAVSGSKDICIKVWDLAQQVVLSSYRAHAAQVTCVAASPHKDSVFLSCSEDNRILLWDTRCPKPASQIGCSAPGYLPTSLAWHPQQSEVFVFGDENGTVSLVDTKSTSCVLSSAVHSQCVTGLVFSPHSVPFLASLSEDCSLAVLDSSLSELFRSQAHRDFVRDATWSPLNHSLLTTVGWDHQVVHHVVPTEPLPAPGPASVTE

Compound | pIC50 [1] | pIC50 ([2]; read-out: No Cofactor/rel IC50) | pIC50 [3] | pIC50 [4, 5] | pIC50 ([4]; Homo sapiens, HAP1, viability assay, HAP1 MTAP-deleted) | pIC50 [2, 6] | pIC50 ([4]; viability assay, MTAP-deleted cell line)
C[C@H]1CC[C@H](c2ccc(N[C@H](C)C(=O)N(C)C)cc2)N(C(=O)C(=O)Nc2cncc(C(N)=O)c2)C1 (racemic) [Compound 414, 5-[[2-[(2R,5S)-2-[4-[[(1R)-2-(Dimethylamino)-1-methyl-2-oxo-ethyl]amino]phenyl]-5-methyl-1-piperidyl]-2-oxo-acetyl]amino]pyridine-3-carboxamide] | 6.30 to 7.30 | 6.30 to 7.30 | 6.30 to 7.30 | < 5.00 |  |  | 
C[C@@H]1CC[C@@H](c2cc(F)cc(F)c2)N(C(=O)C(=O)Nc2cncc(C(N)=O)c2)C1 (racemic) [Compound 416, rac-5-{2-[(2R,5S)-2-(3,5-Difluorophenyl)-5-methylpiperidin-1-yl]-2-oxoacetamido}pyridine-3-carboxamide] | 6.30 to 7.30 | 6.30 to 7.30 | 6.30 to 7.30 | 5.00 to 6.00 |  |  | 
NC(=O)c1cncc(NC(=O)C(=O)N2CC[C@H]3C[C@@H](O)CC[C@@H]3C2)c1 (racemic) [Compound 418, 5-[2-(6-Hydroxy-decahydroisoquinolin-2-yl)-2-oxoacetamido]pyridine-3-carboxamide] | < 6.30 | < 6.30 | 6.30 to 7.30 | < 5.00 |  |  | 
NC(=O)c1cncc(NC(=O)C(=O)N2CC[C@@]3(O)CCCC[C@H]3C2)c1 (racemic) [Compound 421, 5-[2-(4a-Hydroxy-decahydroisoquinolin-2-yl)-2-oxoacetamido]pyridine-3-carboxamide] | < 6.30 | < 6.30 | 6.30 to 7.30 | < 5.00 |  |  | 
Cc1cc(NC(=O)C(=O)N2C[C@H](C)CC[C@H]2C2CCNCC2)cnc1N (racemic) [Compound 708, N-(6-amino-5-methyl-3-pyridyl)-2-[(2R,5S)-5-methyl-2-(4-piperidyl)-1-piperidyl]-2-oxo-acetamide] | < 6.30 | < 6.30 | < 6.30 |  | < 5.00 |  | 
Cc1cc(NC(=O)C(=O)N2C[C@H](C)CC[C@H]2c2ccc3c(cnn3C)c2)cnc1N (racemic) [Compound 922] | 6.30 to 7.30 | 6.30 to 7.30 | > 7.30 | > 6.00 |  |  | 
COc1ncc(NC(=O)C(=O)N2C[C@@H](C)CC[C@@H]2c2ccc3sc(N)nc3c2)cc1C(N)=O (racemic) [Compound 954, 5-[[2-[(2R,5S)-2-(2-amino-1,3-benzothiazol-5-yl)-5-methyl-1-piperidyl]-2-oxo-acetyl]amino]-2-methoxy-pyridine-3-carboxamide] | 6.30 to 7.30 | 6.30 to 7.30 | 6.30 to 7.30 | > 6.00 |  |  | 
Cc1cc(NC(=O)C(=O)N2C[C@H](C)CC[C@H]2c2ccc(C(C)O)cc2)cnc1N (mixture of isomers) [Compound 956, N-(6-amino-5-methyl-3-pyridyl)-2-[(2R,5S)-2-[4-(1-hydroxyethyl)phenyl]-5-methyl-1-piperidyl]-2-oxo-acetamide] | 6.30 to 7.30 | 6.30 to 7.30 | 6.30 to 7.30 | 5.00 to 6.00 |  |  | 
Cc1cc(NC(=O)C(=O)N2C[C@H](C)CC[C@H]2c2ccc3[nH]c(N)nc3c2)cnc1N (racemic) [Compound 990] | 6.30 to 7.30 | 6.30 to 7.30 | > 7.30 | 5.00 to 6.00 |  |  | 
CC(=O)NCc1ccc([C@@H]2CC[C@@H](C)CN2C(=O)C(=O)Nc2cnc(N)c(C)c2)cc1 (racemic) [Compound 1036, rac-2-[(2R,5S)-2-[4-(Acetamidomethyl)phenyl]-5-methyl-1-piperidyl]-N-(6-amino-5-methyl-3-pyridyl)-2-oxo-acetamide] | 6.30 to 7.30 | 6.30 to 7.30 | 6.30 to 7.30 | 5.00 to 6.00 |  |  | 
Cn1nccc1C1CCCCN1C(=O)C(=O)Nc1cncc(C(N)=O)c1 (single isomer, unassigned) [Compound 59] | < 6.30 |  | 6.30 to 7.30 | < 5.00 |  | < 6.30 | 
Cc1cc(NC(=O)C(=O)N2C[C@@H]3CC[C@@H](C3)[C@@H]2c2ccccc2)cnc1N (single isomer, unassigned) [Compound 62] | < 6.30 |  | 6.30 to 7.30 | < 5.00 |  | < 6.30 | 
C[C@@H]1CCC[C@H](c2ccccc2)N1C(=O)C(=O)Nc1cncc(C(N)=O)c1 (single isomer, unassigned) [Compound 278] | < 6.30 | < 6.30 | 6.30 to 7.30 | < 5.00 |  |  | 
COc1ncc(NC(=O)C(=O)N2CCCCC2C2CCCC2)cc1C(N)=O (single isomer, unassigned) [Compound 289, 5-(2-(2-cyclopentylpiperidin-1-yl)-2-oxoacetamido)-2-methoxynicotinamide] | < 6.30 | < 6.30 | < 6.30 |  |  |  | < 5.00
COc1ncc(NC(=O)C(=O)N2C[C@@H](C)CC[C@H]2C2CCCC2)cc1C(N)=O (single isomer, unassigned) [Compound 295] | < 6.30 | < 6.30 | < 6.30 | < 5.00 |  |  | 
CC(=O)N[C@H]1CC[C@H]([C@H]2CC[C@H](C)CN2C(=O)C(=O)Nc2cnc(N)c(C)c2)CC1 (single isomer, unassigned) [Compound 296] | < 6.30 | < 6.30 | 6.30 to 7.30 | < 5.00 |  |  | 

Compound | pIC50 [1] | pIC50 ([2]; read-out: No Cofactor/rel IC50) | pIC50 [3] | pIC50 [4, 5] | pIC50 ([4]; Homo sapiens, HAP1, viability assay, HAP1 MTAP-deleted) | pIC50 [2, 6] | pIC50 ([4]; viability assay, MTAP-deleted cell line)
COc1ncc(NC(=O)C(=O)N2C[C@@H](C)CC[C@@H]2C2CCCC2)cc1C(N)=O (single isomer, unassigned) [Compound 298] | < 6.30 | < 6.30 | < 6.30 | < 5.00 |  |  | 
Cc1cc(NC(=O)C(=O)N2C[C@@H](C)[C@@H](C)C[C@H]2c2ccccc2)cnc1N (single isomer, unassigned) [Compound 304] | 6.30 to 7.30 | 6.30 to 7.30 | 6.30 to 7.30 | < 5.00 |  |  | 
COc1ncc(NC(=O)C(=O)N2C[C@H](C)CC[C@@H]2C2CCCC2)cc1C(N)=O (single isomer, unassigned) [Compound 312] | 6.30 to 7.30 | < 6.30 | 6.30 to 7.30 | < 5.00 |  |  | 
COc1ncc(NC(=O)C(=O)N2C[C@H](C)CC[C@@H]2C2CCCCC2)cc1C(N)=O (single isomer, unassigned) [Compound 389] | < 6.30 | < 6.30 | 6.30 to 7.30 | < 5.00 |  |  | 
C[C@@H]1CC[C@H](c2ccc(O)nc2)N(C(=O)C(=O)Nc2cncc(C(N)=O)c2)C1 (single isomer, unassigned) [Compound 401] | 6.30 to 7.30 | 6.30 to 7.30 | > 7.30 | < 5.00 |  |  | 
Cc1cc(NC(=O)C(=O)N2C[C@@H](C)CC[C@@H]2[C@H]2CC[C@@H](O)CC2)cnc1N (single isomer, unassigned) [Compound 423] | < 6.30 | < 6.30 | < 6.30 | < 5.00 |  |  | 
CNc1ccc([C@@H]2CC[C@@H](C)CN2C(=O)C(=O)Nc2cncc(C(N)=O)c2)cc1 (single isomer, unassigned) [Compound 424] | < 6.30 | < 6.30 | < 6.30 | < 5.00 |  |  | 
C[C@H]1CC[C@H](c2ccc3c(c2)CCCN3)N(C(=O)C(=O)Nc2cncc(C(N)=O)c2)C1 (single isomer, unassigned) [Compound 426] | < 6.30 | < 6.30 | < 6.30 | < 5.00 |  |  | 
Cc1cc(NC(=O)C(=O)N2C[C@@H](C)CC[C@@H]2[C@H]2CC[C@H](O)CC2)cnc1N (single isomer, unassigned) [Compound 434] | < 6.30 | < 6.30 | < 6.30 | < 5.00 |  |  | 
C[C@@H]1CC[C@@H](c2ccccc2)N(C(=O)C(=O)Nc2cncc(C(N)=O)c2)[C@@H]1C (single isomer, unassigned) [Compound 435] | < 6.30 | < 6.30 | < 6.30 | < 5.00 |  |  | 
C[C@@H]1CC[C@@H](c2cccc(Cl)c2)N(C(=O)C(=O)Nc2cncc(C(N)=O)c2)C1 (single isomer, unassigned) [Compound 441] | < 6.30 | < 6.30 | < 6.30 | < 5.00 |  |  | 
CNc1ccc([C@H]2CC[C@H](C)CN2C(=O)C(=O)Nc2cncc(C(N)=O)c2)cn1 (single isomer, unassigned) [Compound 444] | < 6.30 | < 6.30 | < 6.30 | < 5.00 |  |  | 
COc1ncc(NC(=O)C(=O)N2C[C@@H](C)CC[C@@H]2c2ccc(F)cc2)cc1C(N)=O (single isomer, unassigned) [Compound 445] | < 6.30 | < 6.30 | < 6.30 | < 5.00 |  |  | 
CNc1cccc([C@H]2CC[C@H](C)CN2C(=O)C(=O)Nc2cnc(N)c(C)c2)c1 (single isomer, unassigned) [Compound 450] | < 6.30 | < 6.30 | < 6.30 | < 5.00 |  |  | 
CC(=O)Nc1ccc([C@H]2CC[C@H](C)CN2C(=O)C(=O)Nc2cncc(C(N)=O)c2)cc1 (single isomer, unassigned) [Compound 452] | < 6.30 | < 6.30 | < 6.30 | < 5.00 |  |  | 
Cc1cc(NC(=O)C(=O)N2C[C@H](C)CC[C@H]2c2ccc3c(c2)C(=O)NC3)cnc1N (single isomer, unassigned) [Compound 656] | < 6.30 | < 6.30 | < 6.30 |  |  |  | 
